Experimental data reported in US7622470B2, “Treatment of T-cell lymphoma using 10-propargyl-10-deazaaminopterin” (Sloan-Kettering Institute for Cancer Research, priority 2004, dated 2009).
Entries after “also recorded” stand apart in the source; their conditions may differ. Like-named read-outs stand apart in the source and are kept apart here.

What was measured:
T cell lymphoma [1] = assay type: in vivo
Protocol: Each of these patients was also treated with folic acid (1 mg/m^2 daily starting 1 week prior to treatment with PDX) and B12 (1 mg/m^2 monthly) supplementation.

murine L1210 cell line = conditions: cited from earlier work
[2] = biological target: T1, dihydrofolate reductase (DHFR) (Mus musculus, UniProt P00375); conditions: relative to L1210 growth inhibition; cited from earlier work
T1 sequence (P00375 1-187): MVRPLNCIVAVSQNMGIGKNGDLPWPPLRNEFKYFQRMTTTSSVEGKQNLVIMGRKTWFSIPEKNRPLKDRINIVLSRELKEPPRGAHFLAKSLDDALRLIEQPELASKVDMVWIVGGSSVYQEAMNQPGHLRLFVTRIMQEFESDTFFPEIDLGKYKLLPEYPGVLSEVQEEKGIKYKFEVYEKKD

[3] = tested on: human tumors (mammary, lung) xenograft; conditions: cited from earlier work
mesothelioma = conditions: cited from earlier work
T cell lymphoma [4] = assay: Prior treatment history of the study patients; assay type: in vivo, human; conditions: Patient 2: Lymphoblastic Lymphoma, Precursor T-cell; MTX May 2002 through February 2004
[5] = Patient 2: Lymphoblastic Lymphoma, Precursor T-cell, Stage IV, PDX 30 mg/m^2 x 3 weeks every 4 weeks, 3 cycles
[6] = Patient 3: HTLV Associated T-cell Lymphoma, PDX 30 mg/m^2 weekly x 3 every 4 weeks x 2 cycles
[7] = Patient 4: Panniculitic T-cell Lymphoma, PDX 30 mg/m^2 weekly x 4

SMILES	Overall response of the patients with T-cell lymphoma treated with PDX (T cell lymphoma [1]; 4 patients, PET imaging)	Toxicities (T cell lymphoma [1]; Patient 1: Peripheral T-cell Lymphoma, Stage IV, PDX 135 mg/m^2 x 1 dose)	Response (T cell lymphoma [1]; Patient 1: Peripheral T-cell Lymphoma, Stage IV, PDX 135 mg/m^2 x 1 dose, folic acid and B12 supplementation)	Response (T cell lymphoma [1]; [5])	Toxicities (T cell lymphoma [1]; [5])	Response (T cell lymphoma [1]; [6])	Toxicities (T cell lymphoma [1]; [6])	Response (T cell lymphoma [1]; [7])	Toxicities (T cell lymphoma [1]; [7])	Inhibition of growth (murine L1210 cell line)	Inhibition of the enzyme [2]	Efficacy against human tumors compared with reference antifolates ([3]; highly purified PDX compositions)	Tumor growth after cessation of therapy ([3]; several weeks after the cessation of therapy)	Efficacy against mesothelioma (mesothelioma)	Response to prior treatment (T cell lymphoma [4])
C#CCC(Cc1cnc2nc(N)nc(N)c2n1)c1ccc(C(=O)N[C@@H](CCC(=O)O)C(=O)O)cc1 (stereo partly drawn) [PDX, 10-Propargyl-10-deazaaminopterin]	all four have met criteria for complete remission	Grade 3 stomatitis; neutropenia grade 3; sepsis	Essentially complete remission by PET scan	Complete remission by PET and CT scans	None	Complete remission	None	Clinical complete remission by PET	None	inhibitor of growth	to a lesser extent	far superior to methotrexate; also recorded: superior to edatrexate	no evidence of tumor growth	effective against mesothelioma	–
CN(Cc1cnc2nc(N)nc(N)c2n1)c1ccc(C(=O)N[C@@H](CCC(=O)O)C(=O)O)cc1 [methotrexate]	–	–	–	–	–	–	–	–	–	–	–	–	–	–	essentially methotrexate resistant disease
